{"source": "paper PMC11237035", "about": "“Glutathione determines chronic myeloid leukemia vulnerability to an inhibitor of CMPK and TMPK” (Communications Biology, 2024)", "format_in_all_cases": "cell-based, human", "key": {"[1]": {"system": "KOPM28 cells", "experiment": "DNA fiber assay (replication speed), KOPM28 cells", "settings": "erastin 0.5 μM, 16 h", "procedure": "(§1) After 3 days, cells were analyzed by viability assays.\n(§2) The DNA fiber assay was performed as described previously. Briefly, cells were sequentially treated with the medium containing 25 μM of CldU (Sigma-Aldrich, C6891) and then 250 μM of IdU (Sigma-Aldrich, I7125) for 20 min. After washing, cells were suspended in PBS (1000 cells/ μL). 2 μL of cell suspension was spotted on slides. After 5 min, 10 μL spread solution (200 mM Tris-HCl, pH 7.5, 50 mM EDTA, and 0.5% SDS) was spotted on the cell droplet and spread on slides. The slides were then fixed with methanol/acetic acid (3:1), followed by denaturation with 2.5 M HCl. After blocking with 5% BSA in TBST, slides were stained with rat anti-BrdU antibody (which detects CldU but not IdU, OBT0030, 1:2000, AbDSerotec) and mouse anti-BrdU antibody (which detects IdU but not CldU, 7580, 1:1000, BD Biosciences) at 4 °C for overnight. The next day, slides were washed with TBST, followed by staining with the secondary antibodies of goat anti-rat IgG conjugated with TRITC (Jackson Lab) and goat anti-mouse IgG conjugated with FITC. Images of DNA fibers were acquired using a microscope (Olympus). The lengths of red- and green-labeled fibers were determined by FluoView3.0 software (Olympus)."}, "[2]": {"system": "KOPM28 cells", "experiment": "GSH/GSSG-Glo measurement, KOPM28 cells", "procedure": "as §1\n(§3) The GSH/GSSG-Glo™ Assay Kit (Promega, V6611) was used for luminescent-based measurement of cellular GSH and GSSG by Tecan Spark 10 microplate reader."}, "[3]": {"system": "TCCS cells", "experiment": "DNA fiber assay (replication speed), TCCS cells", "settings": "erastin 0.5 μM, 16 h", "procedure": "as §1, §2"}, "[4]": {"system": "TCCS cells", "experiment": "GSH/GSSG-Glo measurement, TCCS cells", "procedure": "as §1, §3"}}, "note": "“And” between values parts separate entries of the source, which are not always exact repeats. Equal entries are not always repeated.", "data": [{"smiles": "CCOc1ccccc1-n1c(C(C)N2CCN(C(=O)COc3ccc(Cl)cc3)CC2)nc2ccccc2c1=O", "note": "(stereo not drawn) [erastin]", "values": [{"measurement": "replication stress (DNA fiber)", "setting": "[1]", "value": "induced replication stress"}, {"measurement": "GSH% relative to K562 in 7e (Figure 7f)", "setting": "[2]; KOPM28, Erastin treated, per replicate", "value": "6.981% and 5.472% and 15%"}, {"measurement": "GSH level", "setting": "[2]; KOPM28 cells, erastin 0.5 μM, 16 h", "value": "drastically reduced"}, {"measurement": "replication stress (DNA fiber)", "setting": "[3]", "value": "induced replication stress"}, {"measurement": "GSH level", "setting": "[4]; TCCS cells, erastin 0.5 μM, 16 h", "value": "drastically reduced"}, {"measurement": "GSH% relative to K562 in 7e (Figure 7f)", "setting": "[4]; TCCS, Erastin treated, per replicate", "value": "12.1585% and 8.793% and 13.8%"}]}]}
